Tests used:
[1] = General status / body weight of Li-Pilo rats during treatment; type: in vivo, rat
Method: (§1) From this point, the rats selected received vehicle during the first week of dosing then the test substance, CBD (SYN) or CBD (BOT 0.08%), at 200 mg/kg in drinking water until the end of the study, i.e. 7 weeks (1 week vehicle+6 weeks test substance). Dosing continued throughout the behavioural testing period (1 week). The drink was changed twice a week, until the end of the experiment.
The rats were weighed twice a week, at the same time that the vehicle/formulations were changed in the bottles. The glass bottles were also weighed twice a week for evaluating the volume drunk by the rat and adjusting the concentration during the experiment.

[2] = tested on: rat model of temporal lobe epilepsy, Reduced Intensity Status Epilepticus (RISE); experiment: Post-Seizure Behavioural Battery (PSBB) in the Reduced Intensity Status Epilepticus (RISE) model; type: in vivo
Method: Reduced Intensity Status Epilepticus (RISE) model
The method, which detects anti-epileptic activity follows that described by Modebaze et al., 2016 (PLoS one, 11(2):e0147265).
On Day 1, the rats were treated with lithium chloride (127 mg/kg, 5 mL/kg, s.c.). Approximately 24 hours after, on Day 2, a-methyl scopolamine (1 mg/kg, 1 mL/kg, s.c.) was administered to reduce peripheral manifestations of muscarinic cholinergic receptor activation. Thirty minutes later, a dose of pilocarpine chloride was injected (range from 25 mg/kg×1 to 40 mg/kg×5, i.e. 25-200 mg/kg, 1 mL/kg, s.c., reference P6503, Sigma). […]
Status epilepticus was determined when seizure severity was equal to a score of 5 on a Racine's scale. […]
Behavioural signs of status epilepticus were ceased within 30 minutes and animals were then closely monitored during subsequent recovery. They were visually monitored until ambulatory and able to consume water and moistened, powdered food. […]
The lithium-pilocarpine rats were assessed in the two following behavioural tests twice weekly over the next 10 weeks, starting two weeks after status epilepticus induction (on Day 15). […]
The PSBB score was analysed pre and post-treatment to assess firstly if the animals were evenly distributed in the 3 different treatment groups based on their epileptic phenotype and if it was affected differently by synthetic and botanical CBD. […]

Li-Pilo rats [3] = experiment: Social investigation test in Li-Pilo rats; type: in vivo, rat; conditions: 200 mg/kg, given orally for 6/7 weeks before the test
Method: as §1
The behavioural tests started 6 weeks after the beginning of dosing, i.e. between weeks 11 and 13. The rats were tested in sub-groups, depending on the beginning of the treatment. […]
Two unfamiliar rats (housed in 2 separate cages) from the same group were placed in an unfamiliar testing arena (80×80×40 cm) under dim light (<100 Lux). The behavior of the 2 rats was recorded for 10 minutes.
The time each rat spent investigating (sniffing, grooming, licking, closely following) the other rat was measured manually for 10 minutes. Locomotor activity (line crossing) was also recorded.
A test of normality (D'Agostino and Pearson) was done to check the distribution of the data before applying the appropriate statistical analysis. Data on the investigation duration was analyzed using Kruskal-Wallis Test followed by Dunn's multiple comparisons test. Data on the number of crossings was analysed using One-Way ANOVA followed by Sidak's multiple comparisons test.

Li-Pilo rats [4] = experiment: Elevated plus-maze test in Li-Pilo rats; type: in vivo, rat; conditions: 200 mg/kg, given orally for 6/7 weeks before the test
Method: as §1
The behavioural tests started 6 weeks after the beginning of dosing, i.e. between weeks 11 and 13. The rats were tested in sub-groups, depending on the beginning of the treatment. The behavioural tests included the elevated plus maze, social investigation, social recognition and accelerating rotarod tests (tests done in this order on the week of assessment).
The method, which detects anxiolytic activity, follows that described by Handley and Mithani (Naunyn. Schmied. Arch. Pharmacol., 327, 1-5, 1984). Rodents avoid open spaces (the open arms of an elevated plus-maze). Anxiolytics increase exploratory activity in the open arms, as indicated by increased time spent on the open arms and/or by increased % open-arm entries.
The maze consisted of 4 arms of equal length and width (50×10 cm) arranged in the form of a plus sign (+). Two opposite arms were enclosed by 40 cm high walls (closed arms). The 2 other arms had no walls (open arms). The maze was raised approximately 65 cm above the floor. A rat was placed in the center of the plus-maze and was left to explore for 5 minutes. The number of entries into the open and closed arms and the time spent on the open arms were recorded. The % of open arm entries (open arm entries/total arm entries×100) was calculated.
A test of normality (D'Agostino and Pearson) was done to check the distribution of the data before applying the appropriate statistical analysis. Data on the total number of entries and on the percent of entries in open arms was analyzed using One-Way analysis of variance (ANOVA) followed by Sidak's multiple comparisons test. Data on the time spent in open arms was analysed using Kruskal-Wallis Test followed by Dunn's multiple comparisons test.

Structure (SMILES): C=C(C)[C@@H]1CCC(C)=C[C@H]1c1c(O)cc(CCCCC)cc1O [Synthetic CBD, cannabidiol]
- rats that lost weight on the 7 weeks of test ([1]; Phase 1): Three other rats lost weight
- deaths in the treated group ([1]; Phase 1, nine rats in group): Two rats died
- rats that lost weight on the 7 weeks of test ([1]; Phase 2): Four other rats lost weight
- rats lost before the end of the experiment ([1]; Phase 2, thirteen rats in group): One rat was sacrificed for ethical reasons
- post-treatment PSBB score, as compared with control Li-Pilo rats (epileptic vehicle) ([2]; 200 mg/kg, given orally for 6/7 weeks before the test): did not significantly affect
- post-treatment PSBB score (conclusion) ([2]; epileptic animals, comparator not stated): failed to lower the score
- duration of investigation, as compared with control Li-Pilo rats (Li-Pilo rats [3]): did not significantly change
- number of line crossings, as compared with control Li-Pilo rats (Li-Pilo rats [3]): did not significantly change
- percent of entries in open arms, as compared with control Li-Pilo rats (Li-Pilo rats [4]): did not clearly affect
- time spent in open arms, as compared with control Li-Pilo rats (Li-Pilo rats [4]): did not clearly affect
- total number of entries, as compared with control Li-Pilo rats (Li-Pilo rats [4]; 5 minutes): did not clearly affect

— patent publication US20240091241A1, “USE OF CANNABIDIOL PREPARATIONS IN THE TREATMENT OF TEMPORAL LOBE EPILEPSY” (GW Research Limited, priority 2019, published 2024)
